From patent US6642266B2, “EP4 receptor selective agonists in the treatment of osteoporosis” (Pfizer Inc., priority 1999, dated 2003)

How the values were obtained:
OVX rat model = test: Bone mass restoration in OVX rat model (femoral DEXA); format: in vivo; details: subcutaneous 30 mg/kg/day for 28 days
Experimental: The purpose of this study is to determine whether an EP4 receptor selective agonist, and specifically 7-(2-(3-hydroxy-4-phenyl-butyl)-5-oxo-pyrrolidin-1-yl)-heptanoic acid, can restore bone mass in OVX rat model.
Sprague-Dawley […] rats were ovariectomized (OVX) at 3.5 months of age. Ten months after OVX, the rats were treated by subcutaneous injection with vehicle or 7-(2-(3-hydroxy-4-phenyl-butyl)-5-oxo-pyrrolidin-1-yl)-heptanoic acid at 30 mg/kg/day for 28 days. The rats were autopsied. The right femur from each rat was removed at autopsy and scanned using dual energy x-ray absorptiometry (DEXA, QDR 1000/W, Hologic Inc., Waltham, Mass.) equipped with “Regional High Resolution Scan” software (Hologic Inc., Waltham, Mass.). The scan field size was 5.08×1.902 cm, resolution is 0.0254×0.0127 cm and the scan speed was 7.25 mm/second. The femoral scan images were analyzed. Bone mineral content (BMC) and bone mineral density (BMD) of whole femora (WF), distal femoral metaphysis (DFM), and femoral shaft (FS) were determined according to the method described in H. Z. Ke et al., Droloxifene, a New Estrogen Antagonist/Agonist, Prevents Bone Loss in Ovariectomized Rats. ENDOCRINOLOGY 136;2435-2441, 1995.

EP3 receptor = target: T1, EP3 receptor (Homo sapiens, UniProt P43115); test: Assay for binding to prostaglandin E2 receptors (3H-PGE2 displacement), EP3; details: read-out: IC50 at EP3 receptor subtype
T1 construct: expressed in transfected cells
T1 sequence (P43115 1-390): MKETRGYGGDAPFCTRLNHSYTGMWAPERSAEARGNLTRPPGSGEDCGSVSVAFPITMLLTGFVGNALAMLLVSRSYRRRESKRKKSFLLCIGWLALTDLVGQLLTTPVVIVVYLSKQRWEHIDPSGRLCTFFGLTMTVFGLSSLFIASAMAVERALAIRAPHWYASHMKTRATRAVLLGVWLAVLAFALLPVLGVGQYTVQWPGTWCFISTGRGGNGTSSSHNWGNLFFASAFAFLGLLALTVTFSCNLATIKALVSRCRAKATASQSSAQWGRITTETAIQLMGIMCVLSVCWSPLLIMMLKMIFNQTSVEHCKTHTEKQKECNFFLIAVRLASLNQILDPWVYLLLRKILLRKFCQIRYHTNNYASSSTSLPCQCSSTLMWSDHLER
Experimental: (§1) Membrane Preparation: All operations are performed at 4° C. Transfected cells expressing prostagiandin E2 type 1 receptors (EP1), type 2 (EP2), type 3 (EP3) or type 4 (EP4) receptors are harvested and suspended to 2 million cells per ml in Buffer A [50 mM Tris-HCl (pH 7.4), 10 mM MgCl2, 1 mM EDTA, 1 mM Pefabloc peptide, (Boehringer Mannheim Corp., Indianapolis, Ind.), 10 uM Phosporamidon peptide, (Sigma, St. Louis, Mo.), 1 uM pepstatin A peptide, (Sigma, St. Louis, Mo.), 10 uM elastatinal peptide, (Sigma, St. Louis, Mo.), 100 uM antipain peptide, (Sigma, St. Louis, Mo.)]. The cells are lysed by sonification with a Branson Sonifier (Model #250, Branson Ultrasonics Corporation, Danbury, Conn.) in 2 fifteen second bursts. Unlysed cells and debris are removed by centrifugation at 100×g for 10 min. […] Pelleted membranes are resuspended to 3-10 mg of protein per ml of Buffer A, the protein concentration being determined by the method of Bradford [Bradford, M., Anal. Biochem., 72, 248 (1976)]. […]
(§2) Binding Assay: Frozen membranes prepared as above are thawed and diluted to 0.5 mg/ml (for rat EP2) or 0.3 mg/ml (for rat EP4) in Buffer A above. […] To determine the amount of ^3H-prostaglandin bound to the membranes, the dried filters are placed into plastic bags with scintillation fluid and counted in a LKB 1205 Betaplate reader (Wallac, Gaithersburg, Md.). […]

EP1 receptor = target: T2, EP1 receptor (Homo sapiens, UniProt P34995); test: Assay for binding to prostaglandin E2 receptors (3H-PGE2 displacement), EP1; details: read-out: IC50 at EP1 receptor subtype
T2 construct: expressed in transfected cells
T2 sequence (P34995 1-402): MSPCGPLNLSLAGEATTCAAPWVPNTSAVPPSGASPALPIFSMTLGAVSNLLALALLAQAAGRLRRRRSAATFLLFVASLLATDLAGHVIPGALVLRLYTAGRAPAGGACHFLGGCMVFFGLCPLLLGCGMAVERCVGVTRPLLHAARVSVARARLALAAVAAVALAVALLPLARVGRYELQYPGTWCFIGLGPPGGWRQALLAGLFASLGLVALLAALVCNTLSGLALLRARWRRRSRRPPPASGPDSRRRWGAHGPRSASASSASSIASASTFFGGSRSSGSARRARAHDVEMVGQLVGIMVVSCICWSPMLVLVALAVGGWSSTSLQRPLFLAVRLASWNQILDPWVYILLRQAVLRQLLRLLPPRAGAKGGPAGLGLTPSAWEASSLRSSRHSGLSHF
Experimental: as §1, §2

EP2 receptor = target: T3, EP2 receptor (Rattus norvegicus, UniProt Q62928); test: Assay for binding to prostaglandin E2 receptors (3H-PGE2 displacement), EP2; details: read-out: IC50 at EP2 receptor subtype
T3 construct: expressed in transfected cells
Experimental: as §1, §2

EP4 receptor = target: T4, EP4 receptor (Rattus norvegicus, UniProt P43114); test: Assay for binding to prostaglandin E2 receptors (3H-PGE2 displacement), EP4
T4 construct: expressed in transfected cells
Experimental: as §1, §2

[1] = OVX rats, compared with OVX rats treated with vehicle

T4 sequence (P43114 whole entry): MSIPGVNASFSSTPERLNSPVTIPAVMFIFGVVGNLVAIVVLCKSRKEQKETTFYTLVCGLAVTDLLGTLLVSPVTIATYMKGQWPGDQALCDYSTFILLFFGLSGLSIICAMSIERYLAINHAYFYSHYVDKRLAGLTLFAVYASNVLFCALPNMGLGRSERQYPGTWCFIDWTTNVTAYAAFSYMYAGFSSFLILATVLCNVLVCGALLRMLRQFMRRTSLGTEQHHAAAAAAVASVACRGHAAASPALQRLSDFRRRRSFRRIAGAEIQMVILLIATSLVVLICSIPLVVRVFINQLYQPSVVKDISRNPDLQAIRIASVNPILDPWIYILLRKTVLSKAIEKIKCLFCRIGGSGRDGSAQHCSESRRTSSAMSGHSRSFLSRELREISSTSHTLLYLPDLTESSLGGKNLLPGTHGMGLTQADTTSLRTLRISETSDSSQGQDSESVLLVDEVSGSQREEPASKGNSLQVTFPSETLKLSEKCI
T3 sequence (Q62928 whole entry): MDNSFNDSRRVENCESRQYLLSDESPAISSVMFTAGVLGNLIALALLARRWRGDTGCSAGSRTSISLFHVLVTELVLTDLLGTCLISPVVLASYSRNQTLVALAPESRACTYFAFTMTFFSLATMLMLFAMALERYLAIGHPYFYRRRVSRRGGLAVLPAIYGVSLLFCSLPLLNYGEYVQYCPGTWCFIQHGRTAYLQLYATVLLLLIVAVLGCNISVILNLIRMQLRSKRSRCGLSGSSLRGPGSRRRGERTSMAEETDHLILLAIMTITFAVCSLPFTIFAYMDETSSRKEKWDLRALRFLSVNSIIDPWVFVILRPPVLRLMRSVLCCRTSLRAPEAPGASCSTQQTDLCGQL

## O=C(O)CCCCCCN1C(=O)CCC1CCC(O)Cc1ccccc1 (stereo not drawn) [7-(2-(3-hydroxy-4-phenyl-butyl)-5-oxo-pyrrolidin-1-yl)-heptanoic acid]
OVX rat model; OVX rats
  PGE2-like side effects: No PGE2-like side effects were seen
OVX rat model; [1]
  distal femoral BMC increased: 8%
  distal femoral BMD increased: 8%
  femoral shaft BMC increased: 20%
  femoral shaft BMD increased: 18%
  total femoral BMC increased: 17%
  total femoral BMD increased: 13%
OVX rat model
  bone formation and bone restoration in established osteopenic OVX rats: stimulates bone formation and restores bone
EP3 receptor
  IC50: > 3.2 µM
EP1 receptor
  IC50: > 3.2 µM
EP2 receptor
  IC50: > 3.2 µM
EP4 receptor
  IC50: 0.016 µM
